In patent US20120183482A1, “MELANIN PRODUCTION INHIBITOR” (FUJIFILM CORPORATION, priority 2009, published 2012):
Values after ≈ are worked out from the molar mass of the structure shown.

How the values were obtained:
B16 melanoma cells [1] = experiment: Melanin production inhibition test; format: cell-based; conditions: for Melanin Production: no sample = 100; for IC50: Mus musculus, B16, read out from the melanin production inhibition curves (FIG. 1), read-out: IC50 values at which 50% of the melanin production was inhibited
Procedure: B16 melanoma cells were seeded on 10% (v/v) FBS-containing MEM medium (minimum basal medium containing fetal bovine serum) so as to be 2.5×10^5 cells/well in a 12-well culture plate and were cultivated for 24 hours in a usual manner.
(§1) After the pre-cultivation, the medium was replaced with a test medium and cultivation was carried out for 72 hours. As the test medium, there was employed a medium obtained by adding 0.25 mmol/L of theophylline, 0.5% (v/v) of dimethyl sulfoxide to the medium for the pre-cultivation, and each of various evaluation samples so as to be a concentration described in Table.
The Salacia crude extract was prepared by the following method. After 0.5 kg of root and trunk parts of Salacia reticulate, Salacia oblonga, and Salacia chinensis were pulverized, 10 L of water was added thereto and extraction was performed under conditions of 100° C. and 1 hour. After the obtained extract solution was filtrated through a 100-mesh filter, spray drying was performed and a product obtained as 50 g of an extract powder was used.
As ellagic acid, ellagic acid dihydrate manufactured by Wako Pure Chemical Industries, Ltd. was used.
As arbutin, β-arbutin manufactured by Sigma-Aldrich was used.
After the cultivation was finished, the cells were washed with PBS (phosphate buffer) and then a 1 mol/L aqueous sodium hydroxide solution containing 10% (v/v) dimethyl sulfoxide was added thereto. After the whole was subjected to an ultrasonic treatment at 50° C. for 30 minutes, absorbance of the solution at a wavelength of 400 nm was measured and was taken as a melanin amount in a well. Moreover, at the same time, measurement of the number of living cells by MTT assay was carried out in another culture plate (test conditions are in accordance to Example 2). Finally, the melanin amount in the well was normalized by the measurement value by the MTT assay and the resulting amount was taken as a melanin amount per unit cell.
A melanin production inhibition rate (%) in the case where the evaluation sample was added was determined, the melanin amount in the case where no evaluation sample was added being regarded as 100.

B16 melanoma cells [2] = experiment: Cytotoxicity test (MTT assay); format: cell-based; conditions: for Cell survival rate: 72 hours, no sample = 100
Procedure: B16 melanoma cells were seeded on 10% (v/v) FBS-containing MEM medium so as to be 1.25×10^5 cells/well in a 24-well culture plate and were cultivated for 24 hours in a usual manner.
as §1
After the cultivation was finished, the cells were washed with PBS and then a 0.5 mg/mL MTT solution was added in an amount of 500 μL/well and the temperature was kept for 2 hours in an incubator. Thereafter, 1.5 mL of dimethyl sulfoxide was added thereto and then absorbance at a wavelength of 570 nm was measured and taken as an index of the number of living cells.
A cell revival rate (%) in the case where the evaluation sample was added was determined, the number of living cells in the case where no evaluation sample was added being regarded as 100.

[3] = high concentration region, data are not shown

## OC[C@H]1O[C@@H](Oc2ccc(O)cc2)[C@H](O)[C@@H](O)[C@@H]1O [Arbutin, β-arbutin]
B16 melanoma cells [1]; 16.338 μg/mL, 72 hours
  Melanin Production: 69.5%
B16 melanoma cells [1]; 54.46 μg/mL, 72 hours
  Melanin Production: 49.9%
B16 melanoma cells [1]; 163.38 μg/mL, 72 hours
  Melanin Production: 28.4%
B16 melanoma cells [1]; 544.6 μg/mL, 72 hours
  Melanin Production: 20.7%
B16 melanoma cells [1]
  IC50: 54 µg/mL (≈ 198 µM)
B16 melanoma cells [2]; [3]
  cytotoxicity (in words): cytotoxicity was observed

## O=c1oc2c(O)c(O)cc3c(=O)oc4c(O)c(O)cc1c4c23 [Ellagic acid, ellagic acid dihydrate]
B16 melanoma cells [1]; 0.67646 μg/mL, 72 hours
  Melanin Production: 79%
B16 melanoma cells [1]; 2.02938 μg/mL, 72 hours
  Melanin Production: 33%
B16 melanoma cells [1]
  IC50: 1.5 µg/mL
B16 melanoma cells [2]; 0.67646 μg/mL
  Cell survival rate: 117.4%
B16 melanoma cells [2]; 2.02938 μg/mL
  Cell survival rate: 107.3%
B16 melanoma cells [2]; 6.7646 μg/mL
  Cell survival rate: 48.1%
B16 melanoma cells [2]; 20.2938 μg/mL
  Cell survival rate: 25.8%
B16 melanoma cells [2]; high concentration region (up to 20.3 μg/mL)
  cytotoxicity (in words): exhibited cytotoxicity

## O=c1cc(CO)occ1O [Kojic acid]
B16 melanoma cells [1]; 8.5266 μg/mL, 72 hours
  Melanin Production: 83.6%
B16 melanoma cells [1]; 28.422 μg/mL, 72 hours
  Melanin Production: 77.2%
B16 melanoma cells [1]; 85.266 μg/mL, 72 hours
  Melanin Production: 72.8%
B16 melanoma cells [1]; 284.22 μg/mL, 72 hours
  Melanin Production: 43.4%
B16 melanoma cells [1]
  IC50: 240 µg/mL (≈ 1690 µM)
B16 melanoma cells [2]; [3]
  cytotoxicity (in words): cytotoxicity was observed

## COc1ccc(C(=O)[O-])c(O)c1.[K+] [Potassium 4-methoxysalicylate]
B16 melanoma cells [1]; 123.69 μg/mL, 72 hours
  Melanin Production: 46.0%
B16 melanoma cells [1]; 412.3 μg/mL, 72 hours
  Melanin Production: 20.1%
B16 melanoma cells [1]
  IC50: 80 µg/mL
B16 melanoma cells [2]; [3]
  cytotoxicity (in words): cytotoxicity was observed

## O=S(=O)([O-])O[C@@H](CO)[C@H](O)C[S@+]1C[C@@H](O)[C@H](O)[C@H]1CO [Salacinol, salacinol]
B16 melanoma cells [1]; 1.998 μg/mL, 72 hours, melanin amount per unit cell
  Melanin Production: 71%
B16 melanoma cells [1]; 6.66 μg/mL, 72 hours
  Melanin Production: 50%
B16 melanoma cells [1]; 19.98 μg/mL, 72 hours
  Melanin Production: 34%
B16 melanoma cells [1]; B16 melanoma cells, 72 hours
  melanin production inhibitory effect (in words): concentration-dependent and remarkable melanin production inhibitory effect
B16 melanoma cells [1]
  IC50: 6.3 µg/mL (≈ 18.8 µM)
B16 melanoma cells [2]; 1.998 μg/mL
  Cell survival rate: 89.6%
B16 melanoma cells [2]; 6.66 μg/mL
  Cell survival rate: 85.0%
B16 melanoma cells [2]; 19.98 μg/mL
  Cell survival rate: 87.9%
B16 melanoma cells [2]; 66.6 μg/mL
  Cell survival rate: 78.8%
B16 melanoma cells [2]; concentration region up to 66.6 μg/mL
  cytotoxicity (in words): almost no cytotoxicity
